# Patent US20060003942A1, “Combinations for HCV treatment” (priority 2003, published 2006)
# Where two headings read alike, the source gives them in different places.
# Assays:
# [1] = test system: VX-950 metabolism in human hepatic microsomes; assay type: in vitro ADME; conditions: 0.25 μM VX-950, 0.25 mg microsomal protein/mL, 2 minutes
structure (smiles),measurement,setting,value
CCC[C@H](NC(=O)[C@@H]1[C@H]2CCC[C@H]2CN1C(=O)[C@@H](NC(=O)[C@@H](NC(=O)c1cnccn1)C1CCCCC1)C(C)(C)C)C(=O)C(=O)NC1CC1 [VX-950],metabolized in human liver microsomes,"1 h, 2 μM",73%
same,metabolized in human liver microsomes,"1 h, 20 μM",7%
same,metabolized in human liver microsomes,"2 h, 2 μM",86%
same,metabolized in human liver microsomes,"2 h, 20 μM",21%
CC(C)c1nc(CN(C)C(=O)N[C@H](C(=O)N[C@@H](Cc2ccccc2)C[C@H](O)[C@H](Cc2ccccc2)NC(=O)OCc2cncs2)C(C)C)cs1 [ritonavir],effect of ritonavir on VX-950 metabolism,[1]; ritonavir 10 to 100 μM,increase in VX-950 metabolism
same,effect of ritonavir on VX-950 metabolism,[1]; ritonavir up to 3 μM,inhibition of VX-950 metabolism
